In PMC4112151 (Bioorganic & medicinal chemistry, 2014):

Columns and labels:
MOPr [1] = molecular target: T1, MOPr (Homo sapiens, UniProt P35372); experiment: [35S]GTPγS binding, CHO membranes, standard DAMGO; assay type: biochemical; conditions: Ke/nM MOPr, antagonist Ke versus DAMGO, single agonist concentration
KOPr [2] = molecular target: T2, KOPr (Homo sapiens, UniProt P41145); experiment: [35S]GTPγS binding, CHO membranes, standard U69593; assay type: biochemical; conditions: for Kd: Ke/nM KOPr, antagonist Ke versus U69593, single agonist concentration; for fold more potent as KOPr antagonist than 17-methyl equivalent: ratio of Ke: 5k vs 5b, 5i vs 5e
DOPr [3] = molecular target: T3, DOPr (Homo sapiens, UniProt P41143); experiment: [35S]GTPγS binding, CHO membranes, standard DPDPE; assay type: biochemical; conditions: for Kd: Ke/nM DOPr, antagonist Ke versus DPDPE, single agonist concentration
KOPr [4] = molecular target: T2, KOPr; assay type: binding
DOPr [5] = molecular target: T3, DOPr; assay type: binding
DOPr [6] = conditions: cited from earlier work
MOPr [7] = molecular target: T1, MOPr; assay type: binding
MOPr [8] = conditions: read-out: EC50 MOPr partial agonist activity in [35S]GTPγS assay; cited from earlier work
MOPr [9] = experiment: Guinea pig ileum; conditions: 7b Ke in GPI (ref 8) vs 5k Ke in [35S]GTPγS assay
MOPr [10] = conditions: read-out: Ke MOPr antagonist activity in GPI assay; GPI isolated tissue; cited from earlier work

T1 sequence (P35372 whole entry): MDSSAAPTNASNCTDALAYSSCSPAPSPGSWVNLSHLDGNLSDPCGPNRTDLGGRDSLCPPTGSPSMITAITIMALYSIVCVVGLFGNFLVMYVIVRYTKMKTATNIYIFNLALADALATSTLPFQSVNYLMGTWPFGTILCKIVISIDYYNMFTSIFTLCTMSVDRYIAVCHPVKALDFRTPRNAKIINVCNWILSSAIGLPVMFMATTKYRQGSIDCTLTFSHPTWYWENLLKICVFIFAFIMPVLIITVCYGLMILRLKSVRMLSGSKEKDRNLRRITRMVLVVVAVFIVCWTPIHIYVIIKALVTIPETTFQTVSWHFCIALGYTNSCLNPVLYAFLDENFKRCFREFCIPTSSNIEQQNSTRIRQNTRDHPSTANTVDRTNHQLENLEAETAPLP
T3 sequence (P41143 whole entry): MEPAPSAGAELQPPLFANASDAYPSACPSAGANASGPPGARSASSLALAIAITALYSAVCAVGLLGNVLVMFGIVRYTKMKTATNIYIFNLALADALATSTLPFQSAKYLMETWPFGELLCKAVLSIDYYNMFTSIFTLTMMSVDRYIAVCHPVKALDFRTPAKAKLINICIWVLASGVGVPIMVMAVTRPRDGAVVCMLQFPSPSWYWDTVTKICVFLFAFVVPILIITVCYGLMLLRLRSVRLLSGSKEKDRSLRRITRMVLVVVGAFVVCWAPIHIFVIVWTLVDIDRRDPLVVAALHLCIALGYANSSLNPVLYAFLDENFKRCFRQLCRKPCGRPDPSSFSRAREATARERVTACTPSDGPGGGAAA
T2 sequence (P41145 whole entry): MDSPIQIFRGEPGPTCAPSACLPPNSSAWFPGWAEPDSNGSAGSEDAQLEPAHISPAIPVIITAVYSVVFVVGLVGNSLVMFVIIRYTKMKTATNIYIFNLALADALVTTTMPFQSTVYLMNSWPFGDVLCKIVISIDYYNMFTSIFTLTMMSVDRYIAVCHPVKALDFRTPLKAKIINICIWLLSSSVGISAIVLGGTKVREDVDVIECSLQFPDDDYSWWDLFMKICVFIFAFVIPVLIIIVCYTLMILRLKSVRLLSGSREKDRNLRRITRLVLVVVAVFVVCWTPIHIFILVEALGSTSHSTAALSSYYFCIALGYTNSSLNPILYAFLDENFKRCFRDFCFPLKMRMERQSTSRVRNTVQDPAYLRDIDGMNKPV

Compound | Kd (MOPr [1]) [nM] | Kd (KOPr [2]) [nM] | Kd (DOPr [3]) [nM] | other results
CCOC(=O)Cc1c2c(n(Cc3ccccc3)c1O)[C@@H]1Oc3c(O)ccc4c3[C@@]13CCN(CC1CC1)[C@H](C4)[C@]3(O)C2 [4b] | 6.61 | 4.3 | 6.79 | –
CN1C(=O)CCC2=C1[C@@H]1Oc3c(O)ccc4c3[C@@]13CCN(C)[C@H](C4)[C@]3(O)C2 [5a] | – | 392 | – | –
CN1CC[C@]23c4c5ccc(O)c4O[C@H]2C2=C(CCC(=O)N2Cc2ccccc2)C[C@@]3(O)[C@H]1C5 [5b] | – | 21.3 | – | fold lower binding affinity at KOPr than at MOPr (KOPr [4]; ratio of Ki, KOPr vs MOPr): ~6 fold; fold lower binding affinity at DOPr than at MOPr (DOPr [5]; ratio of Ki, DOPr vs MOPr): around 3 fold; %stim DOPr (DOPr [3]; % stimulation relative to the standard DPDPE): 94%
CN1C(=O)[C@H](CCO)CC2=C1[C@@H]1Oc3c(O)ccc4c3[C@@]13CCN(C)[C@H](C4)[C@]3(O)C2 [5c] | – | 321 | – | –
CN1C(=O)[C@@H](CCO)CC2=C1[C@@H]1Oc3c(O)ccc4c3[C@@]13CCN(C)[C@H](C4)[C@]3(O)C2 [5d] | – | 2140 | – | –
CN1CC[C@]23c4c5ccc(O)c4O[C@H]2C2=C(C[C@@H](CCO)C(=O)N2Cc2ccccc2)C[C@@]3(O)[C@H]1C5 [5e] | 32.9 | 29.3 | – | –
CN1CC[C@]23c4c5ccc(O)c4O[C@H]2C2=C(C[C@H](CCO)C(=O)N2Cc2ccccc2)C[C@@]3(O)[C@H]1C5 [5f] | – | 16.8 | – | –
C[C@@H]1CC2=C([C@@H]3Oc4c(O)ccc5c4[C@@]34CCN(CC3CC3)[C@H](C5)[C@]4(O)C2)N(Cc2ccccc2)C1=O [5g] | 0.5 | 0.23 | 0.23 | –
C[C@H]1CC2=C([C@@H]3Oc4c(O)ccc5c4[C@@]34CCN(CC3CC3)[C@H](C5)[C@]4(O)C2)N(Cc2ccccc2)C1=O [5h] | 0.6 | 2.03 | 0.57 | –
O=C1[C@H](CCO)CC2=C([C@@H]3Oc4c(O)ccc5c4[C@@]34CCN(CC3CC3)[C@H](C5)[C@]4(O)C2)N1Cc1ccccc1 [5i] | 0.35 | 0.73 | 0.47 | fold more potent as KOPr antagonist than 17-methyl equivalent (KOPr [2]): 40 fold
O=C1[C@@H](CCO)CC2=C([C@@H]3Oc4c(O)ccc5c4[C@@]34CCN(CC3CC3)[C@H](C5)[C@]4(O)C2)N1Cc1ccccc1 [5j] | 1.62 | 2.22 | 0.93 | –
O=C1CCC2=C([C@@H]3Oc4c(O)ccc5c4[C@@]34CCN(CC3CC3)[C@H](C5)[C@]4(O)C2)N1Cc1ccccc1 [5k, 1′-Benzyl-17-cyclopropylmethyl-6,7-didehydro-4,5-epoxy-4′,5′-dihydro-3,14-dihydroxy-pyrido[2,3: 6,7-]morphinan-6(1H)-one] | 0.2 | 0.13 | – | fold more potent as KOPr antagonist than 17-methyl equivalent (KOPr [2]): over 160 fold
O=C1CCC2=C([C@@H]3Oc4c(O)ccc5c4[C@@]34CCN(CC3CC3)[C@H](C5)[C@]4(O)C2)N1CC1CCCCC1 [5n, 1′-Cyclohexylmethyl-17-cyclopropylmethyl-6,7-didehydro-4,5-epoxy-4′,5′-dihydro-3,14-dihydroxy-pyrido[2,3: 6,7-]morphinan-6(1H)-one] | 0.27 | 0.48 | – | –
Cc1[nH]c2c(c1Cc1ccccc1)C[C@@]1(O)[C@H]3Cc4ccc(O)c5c4[C@@]1(CCN3CC1CC1)[C@H]2O5 [6b] | – | – | – | DOPr antagonist selectivity over both MOPr and KOPr (DOPr [6]): 50 fold
CN1CC[C@]23c4c5ccc(O)c4O[C@H]2c2ncccc2C[C@@]3(O)[C@H]1C5 [7a, reference compound] | – | – | – | fold lower MOPr affinity than 5b (MOPr [7]): 27 fold; fold lower KOPr affinity than 5b (KOPr [4]): 130 fold; fold lower DOPr affinity than 5b (DOPr [5]): 20 fold; EC50 (MOPr [8]): 3000 nM
Oc1ccc2c3c1O[C@H]1c4ncccc4C[C@@]4(O)[C@@H](C2)N(CC2CC2)CC[C@]314 [7b] | – | – | – | fold lower MOPr antagonist potency than 5k (MOPr [9]): 800 fold; Kd (MOPr [10]): 164 nM
